From patent EP0781268B1, “DERIVATIVES OF 2-AMINO-1,2,3,4-TETRAHYDRONAPHTHALENE ACTIVE ON THE CARDIOVASCULAR SYSTEM” (ZAMBON GROUP S.p.A., priority 1994, dated 1996)
Where a name gives a salt, the structure may show the parent alone.

Experiments:
D1-like (RSA) = assay: D1-like activity in the Rabbit Splenic Artery (RSA) test, isolated arterial rings; conditions: agonist activity; arterial preparations contracted with U46619 0.1 µM; compounds cumulatively administered
Procedure: Arterial rings were prepared according to Semeraro et al., Naunyn. Schmied. Arch. Pharmacol., 1990, 342 539. […] The tested compounds were cumulatively administered. Dopamine and dopexamine were used as reference substances.

D2-like (REA) = assay: D2-like activity in the Rabbit Ear Artery (REA) test, isolated arterial rings; parameters: species or system Male New Zealand rabbits; conditions: agonist activity; electrically stimulated ear artery rings (10 Hz, 1 msec, 40-80 mA); compounds cumulatively administered
Procedure: Arterial rings were prepared according to the method described by […] al., Science, 1978, 443 199, modified as follows. Male New Zealand rabbits weighing 2.5-3 Kg were sacrificed by intravenous injection of an excess of pentobarbital sodium and exsanguinated. The two ears were taken away and the central ear artery was dissected into 3 mm long rings. These preparations were set up in a 25 ml organ bath containing Krebs solution (mM/l): NaCl 118, KCl 4.7, CaCl2 2.5, MgSO4 1.2, NaHCO3 25, KH2PO4 1.2, glucose 11.1, equilibrated with 95% O2-5% CO2 and maintained at 35±1°C. Krebs solution was medicated with EDTA (10 μM) to prevent cathecolamine oxydation, desipramine (0.1 μM) and corticosterone (30 μM), to block neuronal and extraneuronal cathecolamine uptake. The preparations were electrically stimulated (10 Hz, 1 msec, 40-80 mA, 500 msec duration) at 5 minutes intervals. The tested compounds were cumulatively administered. Dopamine and dopexamine were used as reference substances.

D2 receptor = target: T1, D2 receptor (Rattus norvegicus, UniProt P61169); assay: biochemical; format: binding; conditions: rat striated membranes; [3H]-domperidone 0.3 nM; BSA 0.01%; 37°C for 30 minutes; read-out: Affinity [K1 (nM)] D2 [^3H]-domperidone
T1 construct: from tissue; host or cells: rat brain striatum membranes
Procedure: The tissue were homogenized in 50 mM Tris/HCl buffer at pH 7.4 (1:100 w/v).
The homogenate was centrifuged and the pellet resuspended, recentrifuged and resuspended again in 50 mM Tris/HCl buffer at pH 7.4 containing 120 mM NaCl, 5mM KCl, 2 mM CaCl2 and 1 mM MgCl2.
Furthermore, bovine serum albumine (BSA) (0.01%) was added.
The mixture was incubated at 37°C for 30 minutes for each concentration of tested compounds.

D1 receptor = target: T2, D1 receptor (Rattus norvegicus, UniProt P18901); assay: biochemical; format: binding; conditions: rat striated membranes; 0.2 nM [3H]-SCH23390; 37°C for 20 minutes; read-out: Affinity [K1 (nM)] D1 [^3H]-SCH23390
T2 construct: from tissue; host or cells: rat brain striatum membranes
Procedure: The conditions of standard incubation (volume 1000 µl) for the test in which [^3H]-SCH23390 was used were the following: 50 mM Tris/HCl buffer (pH.7.4), 0.2 nM [^3H]-SCH23390, a membrane preparation of 130-140 µg proteins/ml.
The mixture was incubated with different concentrations of the tested compounds at 37°C for 20 minutes, filtered under vacuum through Whatman GF/C filters and then washed 4 times with 5 ml of 50 mM Tris/HCl buffer (pH 7.4) cooled with ice.

[1] = Fitton and Benfield, Drugs, 39(2), 308-330 (1990); cited from earlier work

T1 sequence (P61169 whole entry): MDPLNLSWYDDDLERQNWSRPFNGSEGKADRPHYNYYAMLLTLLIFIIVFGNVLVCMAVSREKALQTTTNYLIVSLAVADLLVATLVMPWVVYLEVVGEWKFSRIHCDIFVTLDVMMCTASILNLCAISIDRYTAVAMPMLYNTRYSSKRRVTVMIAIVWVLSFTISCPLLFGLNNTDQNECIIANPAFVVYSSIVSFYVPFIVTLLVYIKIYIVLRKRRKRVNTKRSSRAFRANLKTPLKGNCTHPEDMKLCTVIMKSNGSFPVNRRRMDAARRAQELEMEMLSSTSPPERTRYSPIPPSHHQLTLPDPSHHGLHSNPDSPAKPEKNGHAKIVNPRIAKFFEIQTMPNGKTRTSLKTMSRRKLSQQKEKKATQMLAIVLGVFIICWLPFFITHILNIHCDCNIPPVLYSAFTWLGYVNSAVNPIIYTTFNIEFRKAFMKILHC
T2 sequence (P18901 whole entry): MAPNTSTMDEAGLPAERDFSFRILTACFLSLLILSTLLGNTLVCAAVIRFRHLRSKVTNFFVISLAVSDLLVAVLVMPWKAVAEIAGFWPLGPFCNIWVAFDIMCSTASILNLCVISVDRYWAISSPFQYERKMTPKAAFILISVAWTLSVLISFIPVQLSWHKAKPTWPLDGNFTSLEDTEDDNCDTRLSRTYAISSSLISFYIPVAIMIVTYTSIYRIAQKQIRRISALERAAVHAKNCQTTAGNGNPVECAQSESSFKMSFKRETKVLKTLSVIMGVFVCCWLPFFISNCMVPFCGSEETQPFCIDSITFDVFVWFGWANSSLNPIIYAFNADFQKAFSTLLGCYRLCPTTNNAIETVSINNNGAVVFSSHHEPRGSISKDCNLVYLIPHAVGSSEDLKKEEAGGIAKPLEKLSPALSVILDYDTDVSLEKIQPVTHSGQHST

Compound	Ki (D2 receptor)	Ki (D1 receptor)	D1-like (RSA) pD2 (D1-like (RSA))	D2-like (REA) pD2 (D2-like (REA))	absorption when administered by oral route [1]
CCCN(CCCCCCN(C)CCc1ccccc1)[C@H]1CCc2c(ccc(O)c2O)C1 [Compound 5, (S)-N-methyl-N-(2-phenylethyl)-N'-propyl-N'-[2-(5,6-dihydroxy-1,2,3,4-tetrahydro)naphthyl]-1.6-hexandiamine dihydrobromide]	0.3 nM	69 nM			
Br.Br.CCCN(CCCCCCNCCc1ccc(O)c(O)c1)[C@H]1CCc2c(O)cccc2C1 [Compound 6, (S)-N-propyl-N-[6-[2-(3,4-dihydroxyphenyl)ethylamino]hexyl]-5-hydroxy-1,2,3,4-tetrahydro-2-naphthylamine dihydrobromide]			7.5	9.6	
CCCN(CCCCCCCCNCCc1ccc(O)c(O)c1)[C@H]1CCc2c(ccc(O)c2O)C1 [Compound 7, dihydrobromide]	0.5 nM	27 nM			
CCCN(CCCCNCCc1ccccc1)[C@H]1CCc2c(ccc(O)c2O)C1 [Compound 8, (S)-N-propyl-N-[4-(2-phenyletylamino)butyl]-5,6-dihydroxy-1,2,3,4--tetrahydro-2-naphthylamine dihydrobromide]	1 nM	361 nM	6.4	8.2	
Br.Br.CCCN(CCCCCCNCCc1ccc(O)cc1)[C@H]1CCc2c(O)cccc2C1 [Compound 9, (S)-N-propyl-N-[6-[2-(4-hydroxyphenyl)ethylamino]hexyl]-5-hydroxy-1,2,3,4-tetrahydro-2-naphthylamine dihydrobromide]				9.1	
CCCN(CCCCCCNCCc1ccccc1)[C@H]1CCc2cc(O)c(O)cc2C1 [Compound 11, (S)-N-propyl-N-[6-(2-phenylethylamino)hexyl]-6,7-dihydroxy-1,2,3,4--tetrahydro-2-naphthylamine dihydrochloride]	0.5 nM	89 nM	6.2	8.4	
CCCN(CCCCCCNCCCc1ccccc1)[C@H]1CCc2c(ccc(O)c2O)C1 [Compound 12, (S)-N-propyl-N-[6-(3-phenylpropylamino)hexyl]-5,6-dihydroxy-1,2,3,4--tetrahydro-2-naphthylamine dihydrochloride]			7.1	8.6	
Br.Br.CCCN(CCCCCCNCCc1ccc(O)c(O)c1)[C@@H]1CCc2cc(O)c(O)cc2C1 [Compound 13, (R)-N-propyl-N-[6-[2-(3,4-dihydroxyphenyl)ethylamino]hexyl]-6,7-dihydroxy-1,2,3,4-tetrahydro-2-naphthylamine dihydrobromide]	0.8 nM	43 nM	7.7	9.4	
Br.Br.CCCN(CCCCCCNCCc1ccc(O)cc1)[C@@H]1CCc2cc(O)c(O)cc2C1 [Compound 14, (R)-N-propyl-N-[6-[2-(4-hydroxyphenyl)ethylamino]hexyl]-6,7-dihydroxy-1,2,3,4-tetrahydro-2-naphthylamine dihydrobromide]			7.9	9.9	
Br.Br.CCCN(CCCCCCNCCc1ccccc1O)[C@H]1CCc2c(ccc(O)c2O)C1 [Compound 15, (S)-N-propyl-N-[6-[2-(2-hydroxyphenyl)ethylamino]hexyl]-5,6-dihydroxy-1,2,3,4-tetrahydro-2-naphthylamine dihydrobromide]	0.4 nM	33 nM	7.3	9.2	
CCCN(CCCCCCN(CCC)[C@H]1CCc2c(ccc(O)c2O)C1)CCc1ccc(O)cc1 [Compound 18, (S)-N-propyl-N-[2-(4-hydroxyphenyl)ethyl]-N'-propyl-N'-[2-(5,6-dihydroxy-1,2,3,4-tetrahydro)naphthyl]-1,6-hexandiamine dihydrobromide]	0.9 nM	107 nM	6.6	9.2	
NCCc1ccc(O)c(O)c1 [Dopamine, reference compound]			6.4	7.8	not absorbed

Further compounds by falling Ki (D2 receptor), results first:

Ki (D2 receptor)	Ki (D1 receptor)	Compound	D1-like (RSA) pD2 (D1-like (RSA))	D2-like (REA) pD2 (D2-like (REA))	absorption when administered by oral route [1]
1220 nM		Oc1ccc(CCNCCCCCCNCCc2ccccc2)cc1O [Dopexamine, dopexamine, reference compound]	6.1	6.3	not absorbed
0.5 nM	21 nM	Br.Br.CCCN(CCCCCCNCCc1cccc(O)c1)[C@H]1CCc2c(ccc(O)c2O)C1 [Compound 1, (S)-N-propyl-N-[6-[2-(3-hydroxyphenyl)ethylamino)-hexyl]-5,6-dihydroxy-1,2,3,4-tetrahydro-2-naphthylamine dihydrobromide]	8.1	8.8	
0.5 nM	21 nM	Br.Br.CCCN(CCCCCCNCCc1ccc(O)c(O)c1)[C@H]1CCc2c(ccc(O)c2O)C1 [Compound 3, (S)-N-propyl-N-[6-[2-(3,4-dihydroxyphenyl)ethylamino)hexyl]-5,6-dihydroxy-1,2,3,4-tetrahydro-2-naphthylamine dihydrobromide]	8.1	9.5	
0.2 nM	10 nM	Br.Br.CCCN(CCCCCCNCCc1ccc(O)cc1)[C@H]1CCc2c(ccc(O)c2O)C1 [Compound 2, (S)-N-propyl-N-[6-[2-(4-hydroxyphenyl)ethylamino)hexyl]-5,6-dihydroxy-1,2,3,4-tetrahydro-2-naphthylamine dihydrobromide]	8.4	8.8	
0.1 nM	33 nM	Br.Br.CCCN(CCCCCCNCCc1cc(O)cc(O)c1)[C@H]1CCc2c(ccc(O)c2O)C1 [Compound 4, (S)-N-propyl-N-[6-[2-(3,5-dihydroxyphenyl)ethylamino)hexyl]-5,6-dihydroxy-1,2,3,4-tetrahydro-2-naphthylamine dihydrobromide]	8.5	10.6	
0.1 nM	40 nM	CCCN(CCCCCCNCCc1ccccc1)[C@H]1CCc2c(ccc(O)c2O)C1.Cl.Cl [Compound 10, (S)-N-propyl-N-[6-(2-phenylethylamino)hexyl]-5,6-dihydroxy-1,2,3,4-tetrahydro-2-naphthylamine dihydrochloride]	7.2	9.2	
